Square brackets hold non-standard residues; d marks the D form. Peptide text beside a SMILES is read from it. * marks the point of attachment. NQ = N-(2-chloro-1,4-naphthoquinonyl)-β-alanine, O=C1C(Cl)=C(NCCC(=O)*)C(=O)c2ccccc21; Glutaryl(OAqm) = O=C(CCCC(=O)*)OCc1ccc2c(c1)C(=O)c1ccccc1C2=O; X1 = O=C1c2cc(O)cc(O)c2C(=O)c2c(O)cc(C(=O)*)cc21; d(pGlu) = O=C1CC[C@H](C(=O)O)N1; pGlu = O=C1CC[C@@H](C(=O)O)N1; Emo = not defined here
Legend:
[1] = literature ref 14; cited from earlier work
[2] = Relative hydrophobicity by elution from RP-18 HPLC column; type: physicochemical; conditions: percent of buffer B in which the analog was eluted from RP-18 column
Text: All chemicals and reagents were of analytical grade. Rink amide resin, 9-fluorenylmethoxycarbonyl (Fmoc) protected amino acid derivatives, and all the reagents for solid-phase peptide synthesis were purchased from Novabiochem (Läufelfingen, Switzerland). Side-chain protecting groups employed for peptide synthesis were as follows: Arg, 2,2,4,6,7-pentamethyldihydrobenzofuran-5-sulfonyl (Pbf); His, trityl (Trt); D-Lys, 4-methyltrityl (Mtt) or tert-butyloxycarbonyl (Boc); Trp, tert-butyloxycarbonyl (Boc); Ser and Tyr, tert-butyl (tBu). Reversed phase HPLC was performed on a Spectra-Physics SP-8800 liquid chromatography system equipped with an Applied Biosystems 757 variable wavelength absorbance detector. HPLC prepacked columns were: Lichrocart, containing Lichrosorb RP-18 (250×10 mm; 7 μm, Merck, Darmstadt, Germany) for semi-preparative purification and Lichrospher 100 RP-18 (250×4 mm; 5 μm, Merck, Darmstadt, Germany) and wide pore butyl C4 (250×4.6 mm; 5 μm, J. T. Baker Inc., Phillipsburg, N.J.) for analytical purposes. HPLC purification and analysis were achieved by using a linear gradient established between 0.1% trifluoroacetic acid […] in water as buffer A and 0.1% TFA in 75% aqueous acetonitrile as buffer B. Eluent composition was 10-100% B over 40 mlin, using RP-18 column, and a gradient of 0-100% B over 40 min employing a wide pore butyl (C4) column. N-(2noro-1,4-naphtoqumonyl)-β-alanine (NQ), 1,6,8-Trihydroxy-3-carboxylic acid-anthraquinone (Emo) and 2-hydroxymethyl-anthraquinone hemiglutarate (AntrQ) were synthesized as described^14,24,27 (for chemical structure see FIG. 1).

[3] = tested on: human breast and prostate cancer; conditions: literature ref 14; cited from earlier work
[4] = biological target: T1, rat pituitary GnRH receptors (Rattus norvegicus, UniProt P30969); assay: Displacement binding assay with 125I[D-Lys6]GnRH on rat pituitary membranes; conditions: for increase of binding affinity to GnRH receptors compared to the parent peptide: vs [D-Lys6]GnRH; for binding affinity to GnRH receptors (in words): FIG. 11; for IC50: Table 3, estimated IC50, 125I-[D-Lys6]GnRH tracer
T1 construct: from tissue; host or cells: rat pituitary membranes (Wistar-derived rats)
T1 sequence (P30969 1-327): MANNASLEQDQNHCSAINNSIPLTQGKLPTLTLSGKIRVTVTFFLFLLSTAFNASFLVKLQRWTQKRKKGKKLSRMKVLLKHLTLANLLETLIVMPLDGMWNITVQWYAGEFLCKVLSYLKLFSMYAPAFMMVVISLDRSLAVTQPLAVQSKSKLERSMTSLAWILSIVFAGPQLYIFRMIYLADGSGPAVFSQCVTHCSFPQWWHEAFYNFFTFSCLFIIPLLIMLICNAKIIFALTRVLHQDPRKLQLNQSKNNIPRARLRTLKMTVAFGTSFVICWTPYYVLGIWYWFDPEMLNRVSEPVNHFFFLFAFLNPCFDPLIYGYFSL
Experimental: Specific binding was calculated by subtracting the non-specific binding from the maximal binding, determined in the absence of any competing peptide. Results are the mean of two experiments carried out in triplicates. SEM values are omitted for clarity (FIG. 3).

LH release = assay: In vivo LH release after intraperitoneal administration; set-up: species or system rat; conditions: 20 nmol/rat
Experimental: The ability of [D-Lys^6(Emo)]GnRH to bind GnRH receptors and promote LH release in vitro, prompted the evaluation of its in vivo activity.
Blood samples were withdrawn by cardiac puncture under light ether anesthesia at the indicated time intervals, and serum LH levels were determined by RIA as described above (FIG. 6). Results are the mean±SEM of LH concentrations in the serum of five animals/experimental group. The LH concentration was determined using three different dilutions of each serum sample. Similar results were obtained in two other experiments.

αT3-1 cells [5] = assay: In vitro toxicity / phototoxicity (XTT cell survival); type: cell-based, mouse
Experimental: αT3-1 cells (50,000 cells/well) were plated in 96-well tissue culture plates in 0.1 mL of complete medium. After 24 h the medium was changed and cells were incubated in the same medium (without serum and phenol red) containing different concentrations of the tested compounds for 4 h at 37° C. The cells were then washed (×3) with PBS and illuminated (λmax=400 nm) in PBS. The fluence rate was 14.3 mW cm^−2 with a total fluence of 17 J cm^−2. Following illumination the media were replaced by complete medium and the plates were incubated for additional 24 h at 37° C. Cell survival was determined using the XTT (Biological Industries, Beit-Haemek, Israel) kit following the manufacture's protocol. Values are expressed as % survival.

[6] = biological target: T2, human serum albumin (HSA) (Homo sapiens, UniProt P02768); assay: Binding to HSA; type: in vitro ADME; conditions: 37° C., 3 h; FIG. 8
T2 construct: purchased Sigma, St. Louis, Mo
T2 sequence (P02768 25-609): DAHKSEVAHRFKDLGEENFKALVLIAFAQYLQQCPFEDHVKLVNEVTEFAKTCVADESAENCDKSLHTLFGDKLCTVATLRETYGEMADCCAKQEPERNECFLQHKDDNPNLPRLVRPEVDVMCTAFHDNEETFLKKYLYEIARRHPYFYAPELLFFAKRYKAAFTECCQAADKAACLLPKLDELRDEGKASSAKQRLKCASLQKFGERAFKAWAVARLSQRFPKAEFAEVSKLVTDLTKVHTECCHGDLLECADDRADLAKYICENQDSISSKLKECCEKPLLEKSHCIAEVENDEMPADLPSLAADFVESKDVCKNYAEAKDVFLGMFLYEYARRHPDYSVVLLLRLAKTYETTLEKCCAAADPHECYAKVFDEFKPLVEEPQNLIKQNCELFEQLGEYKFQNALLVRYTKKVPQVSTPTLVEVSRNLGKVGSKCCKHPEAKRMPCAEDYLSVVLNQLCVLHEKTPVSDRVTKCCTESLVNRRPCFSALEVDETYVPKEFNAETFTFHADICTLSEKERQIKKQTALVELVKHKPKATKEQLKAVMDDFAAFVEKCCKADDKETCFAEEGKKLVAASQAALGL
Experimental: The concentration of HSA in the solution was determined using a molar extinction coefficient of 39,000 M^−1 cm^−1 at 277.5 nm^33. The unbound compound was then separated from the HSA solution by applying it on to a Centricon® concentrator column (Amicon Inc., Beverly, Mass.) with a band pass membrane of […] according to the manufacture's protocol. The HSA bound compound (˜20 μL) was then precipitated by adding it to acetonitrile (1 mL). The supernatant was kept and the precipitate was dissolved in PBS (100 μL) and re-precipitated. The combined supernatants were evaporated, the residue was dissolved in water containing 0.1% TFA (buffer A) and analyzed by HPLC to determine the amount of the tested compounds. Results represent the mean of two experiments (FIG. 8).

αT3-1 cells [7] = assay: DNA fragmentation assay; type: cell-based, mouse; conditions: 10 μM, FIG. 10
Experimental: FIG. 10. DNA cleavage in cells treated with [D-Lys^6(Emo)]GnRH and emodic acid. αT3-1 cells were incubated; in darkness with 10 μM of the tested compounds, washed and illuminated. After 24 h of incubation DNA was isolated and analyzed by gel electrophoresis. Lanes 1, 3 and 5 represent DNA of cells treated with 1% DMSO in PBS, emodic acid or [D-Lys^6(Emo)]GnRH, respectively, followed by illumination. Lane 2, 4 and 6 represent cells treated with 1% DMSO in PBS, emodic acid, or [D-Lys^6(Emo)]GnRH, respectively, in darkness.
αT3-1 cells (×10^6/dish) were incubated in phenol red and serum free complete medium (37° C., 5% CO2) with the tested compounds for 5 h in the dark. Cells were then washed with PBS (×3) and illuminated or remained in darkness as described earlier. The media were then replaced by complete medium and cells were incubated for additional 24 h. DNA was then isolated, using Wizard® genomic DNA purification kit (Promega, Madison, Wis.) following the company's protocol and analyzed by gel electrophoresis (0.4% cross linked agarose, ethidium bromide staining).

[8] = literature ref 5; cited from earlier work
[9] = biological target: T3, rat pituitary GnRH receptor (rat, UniProt P30969 1-327); assay: displacement of 125I[D-Lys6]GnRH from rat pituitary membranes
T3 construct: whole, on cells; Native receptor; also called GnRH receptors; rat pituitary receptors
T3 sequence (looked up): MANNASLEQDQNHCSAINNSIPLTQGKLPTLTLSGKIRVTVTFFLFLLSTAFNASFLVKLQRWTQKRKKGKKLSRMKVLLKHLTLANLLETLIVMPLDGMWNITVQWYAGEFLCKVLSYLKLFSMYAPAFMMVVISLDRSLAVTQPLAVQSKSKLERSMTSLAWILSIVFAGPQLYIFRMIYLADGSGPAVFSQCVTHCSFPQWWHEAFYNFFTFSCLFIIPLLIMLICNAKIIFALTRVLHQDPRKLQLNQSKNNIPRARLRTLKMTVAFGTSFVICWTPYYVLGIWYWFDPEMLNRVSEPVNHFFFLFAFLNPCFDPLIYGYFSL
Experimental: Briefly, membranes were incubated for 90 min at 4° C. with ¹²⁵I[D-Lys⁶]GnRH and with the unlabeled peptides. Non-specific binding was defined as the residual binding in the presence of excess [D-Lys⁶]GnRH (1 μM). Specific binding was calculated by subtracting the non-specific binding from the maximal binding, determined in the absence of any competing peptide. Results are the mean of two experiments carried out in triplicates. SEM values are omitted for clarity (FIG. 3).

[10] = biological target: T3, rat pituitary GnRH receptor; assay: displacement of 125I[D-Lys6]GnRH from proestrous rat pituitary membranes

For `CC(C)C[C@H](NC(=O)[C@@H](CCCCNC(=O)CCCC(=O)OCc1ccc2c(c1)C(=O)c1ccccc1C2=O)NC(=O)[C@H](Cc1ccc(O)cc1)NC(=O)[C@H](CO)NC(=O)[C@H](Cc1c[nH]c2ccccc12)NC(=O)[C@H](Cc1c[nH]cn1)NC(=O)[C@@H]1CCC(=O)N1)C(=O)N[C@@H](CCCNC(=N)N)C(=O)N1CCC[C@H]1C(=O)NCC(N)=O` [[D-Lys^6(AntrQ)]GnRH, [D-Lys^6(2-hydroxymethyl-anthra-quinone hemiglutarate)] GnRH], the “biological activity relative to the parent peptide” value [1] is listed as “five-fold higher”, the “Hydrophobicity (% B)” value [2] is listed as 84 % B and the “growth of human breast and prostate cancer” value [3] is listed as “inhibited the growth”. For the same molecule, the “increase of binding affinity to GnRH receptors compared to the parent peptide” value [4] was 5 folds.

With `CC(C)C[C@H](NC(=O)[C@@H](CCCCNC(=O)c1cc(O)c2c(c1)C(=O)c1cc(O)cc(O)c1C2=O)NC(=O)[C@H](Cc1ccc(O)cc1)NC(=O)[C@H](CO)NC(=O)[C@@H](Cc1c[nH]c2ccccc12)NC(=O)[C@@H](Cc1ccccc1)NC(=O)[C@H]1CCC(=O)N1)C(=O)N[C@@H](CCCNC(=N)N)C(=O)N1CCC[C@H]1C(=O)NCC(N)=O` [[D-Lys^6(Emo)]Antg, [D-Pyr^1, D-Phe^2, D-Trp^3, D-Lys^6(Emo)]GnRH] ([d(pGlu)][dF][dW]SY[dK](X1)LRPG-NH2) the “binding affinity to GnRH receptors (in words)” value [4] was “lower binding affinity” and the IC50 [4] was 150 nM.

In the case of `CC(C)C[C@H](NC(=O)[C@@H](CCCCNC(=O)CCNC1=C(Cl)C(=O)c2ccccc2C1=O)NC(=O)[C@H](Cc1ccc(O)cc1)NC(=O)[C@H](CO)NC(=O)[C@H](Cc1c[nH]c2ccccc12)NC(=O)[C@H](Cc1c[nH]cn1)NC(=O)[C@@H]1CCC(=O)N1)C(=O)N[C@@H](CCCNC(=N)N)C(=O)N1CCC[C@H]1C(=O)NCC(N)=O` [[D-Lys^6(NQ)]GnRH, [D-Lys^6(N-(2-chloro-1,4-naphthoquinonyl)-β-alanyl)]GnRH], the “Hydrophobicity (% B)” value [2] is reported as 59 % B and the “increase of binding affinity to GnRH receptors compared to the parent peptide” value [4] is reported as 2 folds.

With `CC(C)C[C@H](NC(=O)[C@@H](CCCCN)NC(=O)[C@H](Cc1ccc(O)cc1)NC(=O)[C@H](CO)NC(=O)[C@@H](Cc1c[nH]c2ccccc12)NC(=O)[C@@H](Cc1ccccc1)NC(=O)[C@H]1CCC(=O)N1)C(=O)N[C@@H](CCCNC(=N)N)C(=O)N1CCC[C@H]1C(=O)NCC(N)=O` [[D-Lys^6]Antg, [D-Pyr^1, D-Phe^2, D-Trp^3, D-Lys^6]GnRH] ([d(pGlu)][dF][dW]SY[dK]LRPG-NH2) the IC50 [4] was 45 nM.

In the case of `CC(C)C[C@H](NC(=O)[C@@H](CCCCN)NC(=O)[C@H](Cc1ccc(O)cc1)NC(=O)[C@H](CO)NC(=O)[C@H](Cc1c[nH]c2ccccc12)NC(=O)[C@H](Cc1c[nH]cn1)NC(=O)[C@@H]1CCC(=O)N1)C(=O)N[C@@H](CCCNC(=N)N)C(=O)N1CCC[C@H]1C(=O)NCC(N)=O` [[D-Lys^6]GnRH], the “increase in serum LH levels at higher dose” value (LH release) is reported as “larger increase in serum LH levels” and the “Hydrophobicity (% B)” value [2] is reported as 37 % B.

In the case of `O=C(O)c1cc(O)c2c(c1)C(=O)c1cc(O)cc(O)c1C2=O` [emodic acid], the “phototoxicity to αT3-1 cells” value (αT3-1 cells [5]; 10 μM, illuminated, FIG. 9) is reported as “significant phototoxicity”, the “toxicity to αT3-1 cells in the dark” value (αT3-1 cells [5]; incubated in the dark) is reported as “did not show any toxicity” and the “binding to HSA” value [6] is reported as “binds to HSA”. For the same molecule, the “DNA fragmentation in the dark” value (αT3-1 cells [7]; darkness) was “did not cause any DNA fragmentation” and the “DNA fragmentation upon illumination” value (αT3-1 cells [7]; illuminated) was “induced DNA fragmentation”.

With “[D-Pyr^1, D-Phe^2, D-Trp^3, D-Lys^6]GnRH ([d(pGlu)][dF][dW]SY[dK]LRPG-NH2; SMILES CC(C)C[C@H](NC(=O)[C@@H](CCCCN)NC(=O)[C@H](Cc1ccc(O)cc1)NC(=O)[C@H](CO)NC(=O)[C@@H](Cc1c[nH]c2ccccc12)NC(=O)[C@@H](Cc1ccccc1)NC(=O)[C@H]1CCC(=O)N1)C(=O)N[C@@H](CCCNC(=N)N)C(=O)N1CCC[C@H]1C(=O)NCC(N)=O)” the “binding affinity to GnRH receptors (in words)” value [4] was “lower binding affinity to GnRH receptor as compared to [D-Lys^6]GnRH”.

In the case of “pGlu-His-Trp-Ser-Tyr-Gly-Leu-Arg-Pro-Gly-NH2 [GnRH]”, the “half-life time in the general circulation” value [8] is given as 2 to 4 min.

B1: [D-Lys^6(1,3,8-trihydroxy-6-carboxy-anthraquinone)]GnRH (peptide)
peptide: [pGlu]HWSY[dK](Emo)LRPG-NH2
modifications: not fully specified; printed as [D-Lys^6(1,3,8-trihydroxy-6-carboxy-anthraquinone)]GnRH; reading uncertain
notes: Emodic acid conjugate of [D-Lys6]GnRH, an agonist; also called [D-Lys^6(Emo)]GnRH; [D-(Emo)]GnRH
With B1 the IC50 [9] was 0.25 nM and the IC50 [10] was 2.6 nM.

B2: [D-Lys^6(N-(2-chloro-1,4-naphthoquinonyl)-β-alanyl)]GnRH (peptide)
peptide: [pGlu]HWSY[dK](NQ)LRPG-NH2
notes: Quinone conjugate of [D-Lys6]GnRH; also called [D-Lys^6(NQ)]GnRH
For B2, the IC50 [9] was 0.09 nM.

B3: [D-Lys^6(2-hydroxymethyl-anthraquinone hemiglutarate)]GnRH (peptide)
peptide: [pGlu]HWSY[dK](Glutaryl(OAqm))LRPG-NH2
notes: Quinone conjugate of [D-Lys6]GnRH; also called [D-Lys^6(AntrQ)]GnRH; [D-Lys^6(AntQ)]GnRH
Work on B3 yielded an IC50 [9] of 0.02 nM.
